Results published in ChEMBL document CHEMBL1127481, “Adenosine deaminase inhibitors. Synthesis and biological evaluation of 4-amino-1-(2(S)-hydroxy-3(R)-nonyl)-1H-imidazo[4,5-c]pyridine (3-deaza-(+)-EHNA) and certain C1' derivatives” (J Med Chem, 1994).

Target: T1, Adenosine deaminase (Bos taurus, UniProt P56658)
T1 sequence (P56658 whole entry): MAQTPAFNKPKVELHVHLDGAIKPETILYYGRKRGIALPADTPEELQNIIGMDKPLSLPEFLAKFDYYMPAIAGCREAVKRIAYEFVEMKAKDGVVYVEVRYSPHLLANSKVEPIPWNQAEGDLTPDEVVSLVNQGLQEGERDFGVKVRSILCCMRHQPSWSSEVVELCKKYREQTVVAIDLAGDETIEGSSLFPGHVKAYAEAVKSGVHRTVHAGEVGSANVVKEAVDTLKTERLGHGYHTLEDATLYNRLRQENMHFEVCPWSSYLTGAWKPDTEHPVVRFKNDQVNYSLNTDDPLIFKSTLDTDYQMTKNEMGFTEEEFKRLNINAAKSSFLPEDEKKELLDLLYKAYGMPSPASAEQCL
Test: Compound was tested for the inhibition of adenosine deaminase from calf intestinal mucosa

| SMILES | Ki |
| --- | --- |
| CCCCCC[C@H]([C@@H](O)CF)n1cnc2c(N)nccc21 | 4.7 nM |
| CCCCCC[C@H]([C@H](C)O)n1cnc2c(N)nccc21 | 6.2 nM |
| CCCCCC[C@H]([C@@H](O)CO)n1cnc2c(N)nccc21 | 497 nM |
